SMILES strings stand for the structures.

Data set [1] has as its system IL-1β-stimulated IL-6 production in human skin fibroblast CCD-39SK cells. Nature of the data set: GR-mediated transrepression: IL-1β-stimulated IL-6 production in CCD-39SK cells. The class given is cell-based. Particulars: mean of 22 determinations, read-out: EC50, inhibition of IL-6 expression. The procedure: Glucocorticoid Receptor-Mediated Transrepression Assays: 1. IL-1β-Stimulated IL-6 Production in Human Skin Fibroblast CCD-39SK Cells:
Briefly, human skin fibroblast CCD-39SK cells (20,000 cells/well), obtained from the American Type Culture Collection (ATCC), Manassas, Va. U.S.A. (ATCC Catalog #CRL-1501) are seeded in 96-well plates in SF-GM (MEM) medium (ATCC Catalog #30-20030), supplemented with 10% fetal bovine serum (FBS), 100 U/mL penicillin, 100 μg/mL streptomycin and 2 mmol/L L-glutamine. Cells are maintained in a humidified chamber with 5% CO2 at 37° C. Test compounds are added to the wells in various concentrations ranging from a final concentration of about 4.65 pM to 4.64 μM. 0.1 μM of dexamethasone is used as a positive control. 1-hour post treatment with test compound, IL-1β is added at final concentration of 1 ng/mL and the reaction mixture is incubated overnight. IL-6 concentrations are measured with an ELISA Kit (R&D Systems, Inc., Minneapolis, Minn., U.S.A.) using standard techniques. Briefly, take 10 μL of supernatant from each well and add 90 μL of assay buffer. IL-6 concentrations are quantified by reading absorbance at 450 nm. A standard curve of absorbance versus IL-6 concentration is constructed and used to determine the concentration of IL-6 in experimental samples.

For data set [2], the system named is LPS-stimulated TNF-α production in PMA-differentiated U937 cells. Nature of the data set: GR-mediated transrepression: LPS-stimulated TNF-α production in PMA-differentiated U937 cells. The class given is cell-based. The note with it: Homo sapiens, U-937, mean of 6 determinations, read-out: EC50, inhibition of TNF-α expression. As for the experimental part: 2. LPS-Stimulated TNF-α Production in PMA-Differentiated U937 Cells:
Human U937 pre-monocytic cells (ATCC Catalog #CRL-1593.2) are grown in complete RPMI 1640 medium (ATCC Catalog #30-2001) containing 10% fetal bovine serum (FBS). To allow monocytes to differentiate to adherent macrophages, U937 cells are washed in PBS (Calcium, magnesium-free) and resuspended in fresh RPMI medium containing 20 nM phorbol 12-myristate-13-acetate (PMA) overnight. After differentiation, test compounds are added to the cells in the 96-well plate at various concentrations ranging from about […] to 4.64 μM. 1-hour post treatment with test compound, LPS is added at final concentration of 100 ng/mL and the reaction mixture is incubated overnight.
TNF-α production is measured with an ELISA kit (R&D Systems, Inc., Minneapolis, Minn., U.S.A.) using standard techniques. Briefly, 25 μL cell-free supernatant is transferred to another 96-well plate and 75 μL of assay buffer is added. TNF-α is quantified by reading absorbance at 450 nm. A standard curve of absorbance versus TNF-α concentration is constructed and used to determine the concentration of TNF-α in experimental samples.

Data set [3] is described as follows: In vitro assays of genotoxic potential.

As for `CC/C(=C1\c2ccc(Cl)cc2OCc2ncccc21)c1cccc(NS(C)(=O)=O)c1` [Compound (I), (E)-N-{3-[1-(8-Chloro-11H-10-oxa-1-aza-dibenzo[a,d]cyclohepten-5-ylidene)-propyl]-phenyl}-methanesulfonamide], the EC50 (commonly the concentration at which the effect is half-maximal) in data set [1] is around 4.8 nM; in data set [2], around 30 nM. For the same compound, the genotoxic potential result in data set [3] is “non-genotoxic”.
